The text below walks through data of US4073938A, “19,20-Bis-nor-prostenoic acids as hypolipemic compounds” (Istituto Biochimico Italiano di Loredana Lorenzini S.a.s., priority 1974, dated 1978).

Counter-ions that a name gives are not always drawn.

A short description of this assay: Coagulation test (Time of Quick, Time of Howel). It is filed as in vivo, Male Sprague-Dawley rats. The settings on record: 200 mg/kg endoperitoneal, 2 hours before. The method, then: c. Coagulation test: minutes/10 ± E.S.
Coagulation test (Repetition): minutes/100 ± E.S.
Treatment with the dose of 200 mg/kg endoperitoneal, 2 hours before the test.
Male Sprague-Dawley rate 150 gr.

With `CCCCCCC1CCC(O)C1CCCCCCC(=O)O` (stereo not shown) [Compound C83, 9-hydroxy-19,20-bis-nor-prostanoic acid sodium salt], the “Time of Quick (± E.S.)” value (controls 25.3 ± 0.2, p < 0.001) is reported as 29.0 ± 0.4 minutes/10. Also, the “Time of Howel (± E.S.)” value (controls 84.5 ± 1.6, p < 0.001) was 98.8 ± 0.9 minutes/10. For the same compound, the “Time of Quick (Repetition) (± E.S.)” value (repetition, controls 25.8 ± 0.4, p < 0.001) amounted to 29.3 ± 0.3 minutes/100. Also, for the setting “repetition, controls 95.0 ± 1.5, p < 0.001”, the “Time of Howel (Repetition) (± E.S.)” value was found to be 118.8 ± 2.4 minutes/100.
